Values joined by “and” are separate entries in the source; they are usually repeats but may differ in a detail not shown here. Identical values can stand only once. Inconclusive results and toxic doses are left out. Cut-off read from the data, not from the text of the source: active = T/C of 150% or more; inactive = T/C below 125%.
System: L1210 leukemia ip in BDF1 mice, survival T/C
Assay: NCI In Vivo Anticancer Drug Screen. Data for tumor model L1210 Leukemia (intraperitoneal) in B6D2F1 (BDF1) mice
Conditions: endpoint: mean survival time, higher = longer survival
How it was run: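 In this screen, tumor-bearing mice given compound are compared to those given vehicle, and their survival values are reported as a treated-to-control quotient.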

[1] = dose: 50.0 mg/kg/injection, schedule: Q01DX009 (ip), vehicle: saline
[2] = dose: 100.0 mg/kg/injection, schedule: Q01DX009 (ip), vehicle: saline
[3] = dose: 100.0 mg/kg/injection, schedule: Q04DX003 (ip), vehicle: saline
[4] = dose: 200.0 mg/kg/injection, schedule: Q04DX003 (ip), vehicle: saline
[5] = dose: 100.0 mg/kg/injection, schedule: Q04DX003 (ip), vehicle: saline with Tween-80
[6] = dose: 200.0 mg/kg/injection, schedule: Q04DX003 (ip), vehicle: saline with Tween-80
[7] = dose: 400.0 mg/kg/injection, schedule: Q04DX003 (ip), vehicle: saline with Tween-80
[8] = dose: 25.0 mg/kg/injection, schedule: Q04DX002 (ip), vehicle: Klucel (hydroxypropylcellulose) (HPC)
[9] = dose: 50.0 mg/kg/injection, schedule: Q04DX002 (ip), vehicle: Klucel (hydroxypropylcellulose) (HPC)
[10] = dose: 100.0 mg/kg/injection, schedule: Q04DX002 (ip), vehicle: Klucel (hydroxypropylcellulose) (HPC)
[11] = dose: 200.0 mg/kg/injection, schedule: Q04DX002 (ip), vehicle: Klucel (hydroxypropylcellulose) (HPC)
[12] = dose: 100.0 mg/kg/injection, schedule: Q01DX001 (ip), vehicle: carboxymethylcellulose (CMC)
[13] = dose: 200.0 mg/kg/injection, schedule: Q01DX001 (ip), vehicle: carboxymethylcellulose (CMC)
[14] = dose: 400.0 mg/kg/injection, schedule: Q01DX001 (ip), vehicle: carboxymethylcellulose (CMC)
[15] = dose: 200.0 mg/kg/injection, schedule: Q01DX009 (ip), vehicle: saline
[16] = dose: 400.0 mg/kg/injection, schedule: Q04DX002 (ip), vehicle: Klucel (hydroxypropylcellulose) (HPC)
[17] = dose: 100.0 mg/kg/injection, schedule: Q01DX009 (ip), vehicle: Klucel (hydroxypropylcellulose) (HPC)
[18] = dose: 200.0 mg/kg/injection, schedule: Q01DX009 (ip), vehicle: Klucel (hydroxypropylcellulose) (HPC)
[19] = dose: 400.0 mg/kg/injection, schedule: Q04DX003 (ip), vehicle: saline

Measured: T/C

CSC(N)=Nc1cccc(C)c1C
inactive: [1] 100 % of control | [2] 101 % of control | [3] 97 % of control | [4] 97 % of control

COc1cc(/C=N/NC(N)=S)cc(OC)c1OC
inactive: dose: 100.0 mg/kg/injection, schedule: Q01DX009 (ip), vehicle: saline with Tween-80 93 % of control | [5] 108 % of control | dose: 200.0 mg/kg/injection, schedule: Q01DX009 (ip), vehicle: saline with Tween-80 98 % of control | [6] 110 % of control | dose: 400.0 mg/kg/injection, schedule: Q01DX009 (ip), vehicle: saline with Tween-80 104 % of control | [7] 106 % of control

O=C(Nc1cccc2ccccc12)Oc1ccc(Cl)cc1Cc1ccccc1
inactive: dose: 12.5 mg/kg/injection, schedule: Q04DX002 (ip), vehicle: Klucel (hydroxypropylcellulose) (HPC) 123 % of control | [8] 105 % of control | [9] 94 % of control | [10] 92 % of control | [11] 89 % of control

CSc1cc2c(cc1N)Cc1ccccc1-2
inactive: [12] 98 % of control | [13] 104 % of control | [14] 115 % of control

OC1C(O)C(O)C2(CO2)C(O)C1O (stereo not drawn)
inactive: dose: 600.0 mg/kg/injection, schedule: Q01DX Z (ip), vehicle: saline 112 % of control

CCN(CC)S(=O)(=O)CC
inactive: dose: 100.0 mg/kg/injection, schedule: Q04DX002 (ip), vehicle: saline with Tween-80 99 % of control | dose: 200.0 mg/kg/injection, schedule: Q04DX002 (ip), vehicle: saline with Tween-80 96 % of control | dose: 400.0 mg/kg/injection, schedule: Q04DX002 (ip), vehicle: saline with Tween-80 92 % of control

OCC(O)CCBr (stereo not drawn)
inactive: dose: 100.0 mg/kg/injection, schedule: Q01DX001 (ip), vehicle: saline 100 % of control | [2] 107 % of control | dose: 200.0 mg/kg/injection, schedule: Q01DX001 (ip), vehicle: saline 105 % of control | [15] 115 % of control | dose: 400.0 mg/kg/injection, schedule: Q01DX001 (ip), vehicle: saline 108 % of control

O=C1c2ccccc2C(=O)N1c1ncc2ccccc2n1
inactive: dose: 100.0 mg/kg/injection, schedule: Q01DX001 (ip), vehicle: saline with Tween-80 101 % of control | dose: 200.0 mg/kg/injection, schedule: Q01DX001 (ip), vehicle: saline with Tween-80 92 % of control | dose: 400.0 mg/kg/injection, schedule: Q01DX001 (ip), vehicle: saline with Tween-80 95 % of control

O=C1OC(c2cccc(Cl)c2)=N/C1=C\c1ccc(Cl)cc1
inactive: [10] 100 % of control | [11] 92 % of control | [16] 92 % of control

CCCCCCCC(=O)Nc1ccc(C)cc1C
inactive: [5] 95 % of control | [6] 98 % of control | [7] 94 % of control

Cc1c2ccn(O)cc2cc2c1nc1ccccc12
inactive: dose: 18.75 mg/kg/injection, schedule: Q01DX009 (ip), vehicle: other 116 % of control | dose: 37.5 mg/kg/injection, schedule: Q01DX009 (ip), vehicle: other 114 % of control | dose: 75.0 mg/kg/injection, schedule: Q01DX009 (ip), vehicle: other 112 % of control | dose: 150.0 mg/kg/injection, schedule: Q01DX009 (ip), vehicle: other 110 % of control

CC12CCC(C1)C(C)(C)C2N1C(c2ccccc2)C1c1ccccc1 (stereo not drawn)
inactive: [17] 87 % of control | [18] 87 % of control | dose: 400.0 mg/kg/injection, schedule: Q01DX009 (ip), vehicle: Klucel (hydroxypropylcellulose) (HPC) 100 % of control

O=C(OCc1ccccc1CN1CCCCC1)c1ccc(Cl)cc1
inactive: [8] 102 % of control | [9] 105 % of control | [10] 107 % of control

CC/C=C(\C)C1(CC)C(=O)NC(=O)NC1=O
inactive: dose: 75.0 mg/kg/injection, schedule: Q01DX001 (ip), vehicle: saline 102 % of control | dose: 150.0 mg/kg/injection, schedule: Q01DX001 (ip), vehicle: saline 95 % of control

C=CCNC(=O)Oc1cccc(NC(=O)OC)c1
inactive: [5] 107 % of control | [6] 108 % of control | [7] 105 % of control

COc1cc(C(=O)CC(O)(C(F)(F)F)C(F)(F)F)cc(OC)c1OC
inactive: dose: 50.0 mg/kg/injection, schedule: Q01DX009 (ip), vehicle: Klucel (hydroxypropylcellulose) (HPC) 95 % of control | dose: 100.0 mg/kg/injection, schedule: Q01DX001 (ip), vehicle: Klucel (hydroxypropylcellulose) (HPC) 86 % of control | [17] 97 % of control | dose: 200.0 mg/kg/injection, schedule: Q01DX001 (ip), vehicle: Klucel (hydroxypropylcellulose) (HPC) 100 % of control | [18] 98 % of control

NNC(=O)CNc1ccc(F)c(C(F)(F)F)c1
inactive: [10] 107 % of control | [11] 118 % of control

CS(=O)(=O)Oc1cccc(C(F)(F)F)c1
inactive: [12] 107 % of control | [13] 95 % of control | [14] 98 % of control

NC(=O)SCC(N)C(=O)O (stereo not drawn)
inactive: dose: 50.0 mg/kg/injection, schedule: Q01DX001 (ip), vehicle: carboxymethylcellulose (CMC) 101 % of control | [12] 90 % of control | [3] 104 % of control | [13] 95 % of control | [4] 110 % of control | [14] 101 % of control | [19] 116 % of control

OC(CC(O)(C(F)(F)F)C(F)(F)F)c1ccccc1 (stereo not drawn)
inactive: [5] 103 % of control | [6] 96 % of control | [7] 97 % of control

O=c1[nH]c2ccccc2nc1CBr
inactive: dose: 12.5 mg/kg/injection, schedule: Q04DX003 (ip), vehicle: saline with Tween-80 94 % of control | dose: 25.0 mg/kg/injection, schedule: Q04DX003 (ip), vehicle: saline with Tween-80 89 % of control | dose: 50.0 mg/kg/injection, schedule: Q04DX003 (ip), vehicle: saline with Tween-80 86 % of control

CCCC(N=Cc1ccccc1O)C(=O)O.CCCC(N=Cc1ccccc1O)C(=O)O.[Fe] (stereo not drawn)
inactive: dose: 25.0 mg/kg/injection, schedule: Q01DX009 (ip), vehicle: saline 95 % of control | dose: 25.0 mg/kg/injection, schedule: Q04DX003 (ip), vehicle: saline 98 % of control | [1] 93 % of control | dose: 50.0 mg/kg/injection, schedule: Q04DX003 (ip), vehicle: saline 98 % of control | [3] 96 % of control and 98 % of control

COC(=O)c1cc([N+](=O)[O-])ccc1Cl
inactive: [2] 87 % of control | [3] 98 % of control | [15] 95 % of control | [4] 97 % of control | dose: 400.0 mg/kg/injection, schedule: Q01DX009 (ip), vehicle: saline 101 % of control | [19] 95 % of control

O=Nc1ccc(O)cc1I
inactive: [10] 100 % of control | [11] 97 % of control | [16] 93 % of control

Reference: PubChem BioAssay AID248 (DTP/NCI, 2004)
